Experimental data: patent US20180071280A1, “MODULATORS OF CELL DEATH PROCESSES” (URIFER LTD., priority 2015, published 2018)

Columns and labels:
Format in all cases: cell-based, human
SW620 CC cells = test: MultiTox-Fluor cytotoxicity assay in SW620 CC cells
Protocol: Cell lines (HCT116, ht29, Rko, Hep3B, SW48, SW620, MDA-MB-231, PANC-1, su.86.86, Hfb) were obtained from the American Type Culture Collection (ATCC). Cell type authentication was carried out by microscope and DNA profiles using short tandem repeat analysis. Cells were grown in Minimum Essential Medium (MEM) containing 10% heat-inactivated Fetal Bovine Serum (FBS) or in Dulbecco's Modified Eagle's Medium (DMEM) containing 10% FBS, where specified, at 37° C. with 5% CO2. In general, the in-vitro experiments were carried out with 2. μM 0260 added into the growth medium. Dose response experiments included increasing 0260 concentrations. Cell death levels were determined using the MultiTox-Fluor Multiplex Cytotoxicity Assay (G9201, Promega, USA). In brief, 10,000 cells were seeded in black bottom 96 wells plate and were allowed to attach to the plate bottom for 16 h before the administration of various 0260 concentration in each well. Cell death levels were determined according to the manufacturer's protocol.
Cells death level was determined using the MultiTox-Fluor Multiplex Cytotoxicity Assay (G9201, Promega, USA) according to the manufacturer's protocol.

[1] = test system: malignant cells (CC and MDA cells); test: Cellular ATP level (HPLC) in malignant cells; conditions: SW620, co-treatment with 0260
Protocol: Quantification of intracellular ATP was carried out using HPLC as previously described.
Cells were suspended in 400 μl cold 0.4M perchloric acid solution, incubated on ice for 15 min, centrifuged at 12,000×g, neutralized with 4M K2CO3 to pH 7.5, incubated for 15 min on ice and concentrated (10,000×g). Chromatographic analyses were performed using Hitachi Elite LaChrom system at 30° C. applying supernatants to SUPELCOSIL™ LC-18-S HPLC Column (5 μm particle size, L×I.D. 25 cm×2.1 mm), flow rate 0.2 mL/min under isocratic elution conditions (50 mM potassium phosphate, 100 mM triethylamine, pH 6.5 (adjusted with phosphoric acid)):Acetonitrile (98.5:1.5)). Each analysis cycle was set to 30 min, chromatographic flow was monitored at 260 nm and integrated using EZChrom Elite Software.

PARP-1 = PARP-1 poly-ADP-ribosylation activity in CC cells (WB); conditions: co-treatment with 0260
Protocol: (§1) WB analyses were carried out as previously described before. In brief, cells were lysed in RIPA buffer mixed with protease inhibitors and separated on SDS-PAGE gel, transferred to PVDF membrane treated with 5% skim milk to exclude non-specific background and incubated with a primary antibody over-night. The membrane was incubated for 1 h with a secondary antibody conjugated to Horseradish Peroxidase (HRP). The protein-antibody complex was visualized using the SuperSignal West Pico Chemiluminescent Substrate (Thermo scientific, USA).

CC cells = test: Autophagy in CC cells (TEM, LC3 immuno-staining, WB); conditions: co-treatment with 0260
Protocol: as §1
Cells were fixed with 4% paraformaldehyde (30 min) and incubated with Permeabilization Solution containing 0.1% Triton X-100 (Sigma-Aldrich, Israel) in PBS at room temperature for 1 h. Nonspecific binding was blocked with PBS containing 10% fetal bovine serum for 1 h at room temperature. Cells were incubated with specific antibodies diluted 1:100 overnight at 4° C. Cells were washed (5 min) in PBS containing 0.2% Tween-20 (Sigma-Aldrich, Israel) to remove non-specific binding. Bound primary antibodies were detected by Alexa Fluor® 488 goat anti-mouse IgG antibody or Alexa Fluor® 594 goat anti-rabbit IgG antibody (Molecular Probes, Invitrogen, U.K.). Nuclei were visualized by incubation with Hoechst 33342 solution for 10 min (1:500). Nonspecific staining, as determined by binding to the secondary antibody only, was negligible. The immunostained slides were examined under the fluorescence microscope AxioimagerZ1 (Zeiss, Germany) or confocal fluorescence microscope (Olympus-FV1000).
Cells were grown in MEM or DMEM, washed twice with PBS and fixed for 5 minutes in Karnovsky fixative (2.5% glutaraldehyde, 2.5% paraformaldehyde in cacodylate buffer pH 7.4) on the tissue culture plate. Cells were then harvested, and transferred to 1.5 ml tube for further 1 h fixation at room temperature. The cells were then stored O.N at 4C° after which the samples were washed in 0.1 M cacodylate buffer and post-fixed with 1% OsO4 in 0.1 M sodium cacodylate buffer (Sigma-Aldrich, Israel) for 1 h. […]

SMILES | death levels of 0260 treated cells with autophagy inhibitor (SW620 CC cells; SW620, co-treatment with 0260) | ATP level in 0260 treated cells with autophagy inhibitor [1] | decrease of 0260-induced death (SW620 CC cells; CC cells, co-treatment with 0260) [%] | 0260-induced poly-ADP-ribosylation activity with PARP-1 inhibitor (PARP-1) | induced autophagy with PARP-1 inhibition (LC3II to LC3 I ratio) (CC cells)
Cn1cnc(N)c2ncnc1-2 [3-MA, 3-Methyladenine, reference compound] | reduced death levels | almost completely restored the ATP level |  |  | 
NC(=O)c1cccc(N)c1 [3AB, 3-Aminobenzamide, reference compound] |  |  | 50 | abolished | decreased LC3II to LC3 I ratio
